27 compounds from patent US9060515B2, “Heterocyclic urea compounds” (BIOTA EUROPE LTD, priority 2011, dated 2015) can be followed below.

Converted amounts (≈) assume the structure as drawn. Bounds are passed on as bounds.

Assay type in all cases: cell-based
One experiment deals with S. aureus (ATCC 29213). The experiment in a line: Antibacterial susceptibility testing (MIC, broth microdilution or agar dilution), S. aureus. Particulars: Staphylococcus aureus, ATCC29213; read-out: S. aureus (ATCC 29213) minimal inhibitory concentration (MIC). The essentials:
(§1)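 MICs by CLSI (M7-A7) broth microdilution or agar dilution, against reference ATCC strains as listed.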

The subject of experiment [1] is H. influenzae (ATCC 49247). As to the kind of experiment: Antibacterial susceptibility testing (MIC, broth microdilution or agar dilution), H. influenzae. Particulars: Haemophilus influenzae, ATCC49247; read-out: H. influenzae (ATCC 49247) minimal inhibitory concentration (MIC). How it is done: Compounds of the invention were tested for antimicrobial activity by susceptibility testing in liquid or on solid media. MICs for compounds against each strain were determined by the broth microdilution or agar dilution method according to the guidelines of the Clinical Laboratories and Standards Institute, formerly the National Committee for Clinical Laboratory Standards (Clinical Laboratories and Standards Institute. Methods for Dilution Antimicrobial Susceptibility Tests for Bacteria That Grow Aerobically; Approved Standard—Seventh Edition. Document M7-A7. CLSI, Wayne, Pa., 2006; Clinical Laboratories and Standards Institute. The Gram positive bacterial strains tested include S. aureus (Staphylococcus aureus (Isolate ID ATCC 29213)), E. faecalis (Enterococcus faecalis (Isolate ID ATCC 29212)) and S. pyogenes (Streptococcus pyogenes (Isolate ID ATCC 51339)). The Gram negative bacterial strains tested include H. influenzae (Haemophilus influenzae (Isolate ID ATCC 49247)).

The test system of another experiment is S. pyogenes (ATCC 51339). The experiment in a line: Antibacterial susceptibility testing (MIC, broth microdilution or agar dilution), S. pyogenes. Particulars: Streptococcus pyogenes, ATCC51339; read-out: S. pyogenes (ATCC 51339) minimal inhibitory concentration (MIC). Put shortly:
as §1
On the technique in general: Broth dilution looks for growth in wells or tubes with falling amounts of substance.

For `CCNC(=O)Nc1cc(Nc2ccccc2)c(C(=O)Nc2ccc(C(=O)OC)cc2)cn1` [Compound 67, methyl 4-(6-(3-ethylureido)-4-(phenylamino)nicotinamido)benzoate], the MIC was not above 1 µg/mL in the experiment on S. aureus (ATCC 29213), 4 µg/mL (≈ 9.23 µM) in experiment [1] and not above 1 µg/mL in the experiment with S. pyogenes (ATCC 51339).
For `CCNC(=O)Nc1cc(Nc2ccccc2)c(C(=O)Nc2ccc(C(=O)O)cc2)cn1` [Compound 68, 4-(6-(3-ethylureido)-4-(phenylamino)nicotinamido)benzoic acid], the MIC was 8 µg/mL (≈ 19.1 µM) with S. aureus (ATCC 29213), 4 µg/mL (≈ 9.54 µM) in experiment [1] and not above 1 µg/mL in the experiment on S. pyogenes (ATCC 51339).
The like results for `CCNC(=O)Nc1cc(Nc2ccccc2)c(C(=O)Nc2ccc(CC(=O)OCC)cc2)cn1` [Compound 70, ethyl 2-(4-(6-(3-ethylureido)-4-(phenylamino)nicotinamido)phenyl)acetate] were, in that order, not above 1 µg/mL, 2 µg/mL (≈ 4.33 µM) and not above 1 µg/mL.
For `CCNC(=O)Nc1cc(Nc2ccccc2)c(C(=O)Nc2ccc(CC(=O)O)cc2)cn1` [Compound 71, 2-(4-(6-(3-ethylureido)-4-(phenylamino)nicotinamido)phenyl)acetic acid], in that order: 16 µg/mL (≈ 36.9 µM), 2 µg/mL (≈ 4.61 µM) and not above 1 µg/mL.
The like results for `CCNC(=O)Nc1cc(Nc2ccccc2)c(C(=O)Nc2ccc(CCC(=O)OC)cc2)cn1` [Compound 77] were, in that order, not above 1 µg/mL, 2 µg/mL (≈ 4.33 µM) and not above 1 µg/mL.
Regarding `CCNC(=O)Nc1cc(Nc2ccccc2)c(C(=O)Nc2ccc(CCC(=O)O)cc2)cn1` [Compound 78, 3-[4-[[4-anilino-6-(ethylcarbamoylamino)pyridine-3-carbonyl]amino]phenyl]propanoic acid], the MIC in the experiment with S. aureus (ATCC 29213) is not above 1 µg/mL; in experiment [1], 2 µg/mL (≈ 4.47 µM); in the experiment with S. pyogenes (ATCC 51339) it was not above 1 µg/mL.
Turning to `CCNC(=O)Nc1cc(Nc2ccccc2)c(C(=O)Nc2ccn(C)c(=O)c2)cn1` [Compound 134, 6-[(Ethylcarbamoyl)amino]-N-(1-methyl-2-oxo-1,2-dihydropyridin-4-yl)-4-(phenylamino)pyridine-3-carboxamide], the MIC turned out to be 4 µg/mL (≈ 9.84 µM) in the experiment on S. aureus (ATCC 29213) and 8 µg/mL (≈ 19.7 µM) in experiment [1].
In the case of `CCNC(=O)Nc1cc(Nc2ccccc2)c(C(=O)Nc2ccc(/C=C/C(=O)O)cc2)cn1` [Compound 137, (2E)-3-{4-[({6-[(ethylcarbamoyl)amino]-4-(phenylamino)pyridin-3-yl}carbonyl)amino]phenyl}prop-2-enoic acid], the MIC stood at 2 µg/mL (≈ 4.49 µM) with S. aureus (ATCC 29213) and 4 µg/mL (≈ 8.98 µM) in experiment [1].
The like results for `CCNC(=O)Nc1cc(Nc2ccc(Cl)cc2)c(C(=O)Nc2ccc(CCC(=O)OC)cc2)cn1` [Compound 148, methyl 3-{4-[({4-[(4-chlorophenyl)amino]-6-[(ethylcarbamoyl)amino]pyridin-3-yl}carbonyl)amino]phenyl}propanoate] were, in that order, not above 1 µg/mL and 4 µg/mL (≈ 8.07 µM).
With `CCNC(=O)Nc1cc(Nc2ccc(Cl)cc2)c(C(=O)Nc2ccc(CCC(=O)O)cc2)cn1` [Compound 149, 3-{4-[({4-[(4-chlorophenyl)amino]-6-[(ethylcarbamoyl)amino]pyridin-3-yl}carbonyl)amino]phenyl}propanoic acid], the MIC in the experiment with S. aureus (ATCC 29213) is not above 1 µg/mL; in experiment [1], 4 µg/mL (≈ 8.3 µM).
For `CCNC(=O)Nc1cc(Nc2ccc(Cl)cc2)c(C(=O)Nc2ccc(CC(C)(C)C(=O)O)cc2)cn1` [Compound 160, 3-{4-[({4-[(4-chlorophenyl)amino]-6-[(ethylcarbamoyl)amino]pyridin-3-yl}carbonyl)amino]phenyl}-2,2-dimethylpropanoic acid], in that order: not above 1 µg/mL and 8 µg/mL (≈ 15.7 µM).
The like results for `CCNC(=O)Nc1cc(Nc2cc(F)cc(F)c2)c(C(=O)Nc2ccc(CCc3nnn[nH]3)cc2)cn1` [Compound 161, 4-(3,5-difluoroanilino)-6-(ethylcarbamoylamino)-N-[4-[2-(1H-tetrazol-5-yl)ethyl]phenyl]pyridine-3-carboxamide] were, in that order, not above 1 µg/mL and 8 µg/mL (≈ 15.8 µM).
Turning to `CCNC(=O)Nc1cc(Nc2ccnc(OC)c2)c(C(=O)Nc2cccnc2)cn1` [Compound 163], the MIC in the experiment with S. aureus (ATCC 29213) was not above 1 µg/mL; in experiment [1], 8 µg/mL (≈ 19.6 µM).
The like results for `CCNC(=O)Nc1cc(Nc2ccccc2)c(C(=O)Nc2ccc(CCC(=O)O)nc2)cn1` [Compound 166, 3-{5-[({6-[(ethylcarbamoyl)amino]-4-(phenylamino)pyridin-3-yl}carbonyl)amino]pyridin-2-yl}propanoic acid] were, in that order, 16 µg/mL (≈ 35.7 µM) and 8 µg/mL (≈ 17.8 µM).
With `CCNC(=O)Nc1cc(Nc2ccccc2)c(C(=O)Nc2cnc(NCC3(C(=O)O)CCC3)nc2)cn1` [Compound 168, 1-[({5-[({6-[(ethylcarbamoyl)amino]-4-(phenylamino)pyridin-3-yl}carbonyl)amino]pyrimidin-2-yl}amino)methyl] cyclobutanecarboxylic acid], the values for the MIC (with S. aureus (ATCC 29213); in experiment [1]) were 2 µg/mL (≈ 3.96 µM) and 8 µg/mL (≈ 15.9 µM), respectively.
The like results for `CCNC(=O)Nc1cc(Nc2ccccc2)c(C(=O)Nc2ccc([C@@H]3C[C@H]3C(=O)O)cc2)cn1` [Compound 169] were, in that order, 2 µg/mL (≈ 4.35 µM) and 2 µg/mL (≈ 4.35 µM).
The like results for `CCNC(=O)Nc1cc(Nc2cccnc2)c(C(=O)Nc2ccc(CC(C)(C)C(=O)O)cc2)cn1` [Compound 171, 3-{4-[({6-[(ethylcarbamoyl)amino]-4-(pyridin-3-ylamino)pyridin-3-yl}carbonyl)amino]phenyl}-2,2-dimethylpropanoic acid] were, in that order, 4 µg/mL (≈ 8.39 µM) and 4 µg/mL (≈ 8.39 µM).
On to `CCNC(=O)Nc1cc(Nc2ccc(F)cc2)c(C(=O)Nc2ccc(CC(C)(C)C(=O)O)cc2)cn1` [Compound 175, 3-{4-[({6-[(ethylcarbamoyl)amino]-4-[(4-fluorophenyl)amino]pyridin-3-yl}carbonyl)amino]phenyl}-2,2-dimethylpropanoic acid], for which the MIC in the experiment on S. aureus (ATCC 29213) is not above 1 µg/mL; in experiment [1], 4 µg/mL (≈ 8.1 µM).
The like results for `CCNC(=O)Nc1cc(Nc2ccc(C(F)(F)F)cc2)c(C(=O)Nc2ccc(CCC(=O)O)cc2)cn1` [Compound 176, 3-[4-[[6-(ethylcarbamoylamino)-4-[4-(trifluoromethyl)anilino]pyridine-3-carbonyl]amino]phenyl]propanoic acid] were, in that order, not above 1 µg/mL and 4 µg/mL (≈ 7.76 µM).
For `CCNC(=O)Nc1cc(Nc2cccc(Cl)c2)c(C(=O)Nc2ccc(CC(C)(C)C(=O)O)cc2)cn1` [Compound 177, 3-{4-[({4-[(3-chlorophenyl)amino]-6-[(ethylcarbamoyl)amino]pyridin-3-yl}carbonyl)amino]phenyl}-2,2-dimethylpropanoic acid], in that order: not above 1 µg/mL and 4 µg/mL (≈ 7.84 µM).
The like results for `CCNC(=O)Nc1cc(Nc2cccc(OC)c2)c(C(=O)Nc2ccc(CC(C)(C)C(=O)O)cc2)cn1` [Compound 178, 3-{4-[({6-[(ethylcarbamoyl)amino]-4-[(3-methoxyphenyl)amino]pyridin-3-yl}carbonyl)amino]phenyl}-2,2-dimethylpropanoic acid] were, in that order, not above 1 µg/mL and 4 µg/mL (≈ 7.91 µM).
With `CCNC(=O)Nc1cc(Nc2ccccc2)c(C(=O)Nc2ccc(CCC(=O)OC)nc2)cn1` [Compound 179, methyl 3-{5-[({6-[(ethylcarbamoyl)amino]-4-(phenylamino)pyridin-3-yl}carbonyl)amino]pyridin-2-yl}propanoate], the MIC in the experiment with S. aureus (ATCC 29213) is not above 1 µg/mL; in experiment [1], 8 µg/mL (≈ 17.3 µM).
For `CCNC(=O)Nc1cc(Nc2ccccc2F)c(C(=O)Nc2ccc(CC(C)(C)C(=O)O)cc2)cn1` [Compound 182, 3-{4-[({6-[(ethylcarbamoyl)amino]-4-[(2-fluorophenyl)amino]pyridin-3-yl}carbonyl)amino]phenyl}-2,2-dimethylpropanoic acid], in that order: not above 1 µg/mL and 4 µg/mL (≈ 8.1 µM).
For `CCNC(=O)Nc1cc(Nc2ccccc2Cl)c(C(=O)Nc2ccc(CC(C)(C)C(=O)O)cc2)cn1` [Compound 183, 3-{4-[({4-[(2-chlorophenyl)amino]-6-[(ethylcarbamoyl)amino]pyridin-3-yl}carbonyl)amino]phenyl}-2,2-dimethylpropanoic acid], in that order: not above 1 µg/mL and 4 µg/mL (≈ 7.84 µM).
The like results for `CCNC(=O)Nc1cc(Nc2ccc(F)c(OC)c2)c(C(=O)Nc2ccc(CC(C)(C)C(=O)O)cc2)cn1` [Compound 184, 3-{4-[({6-[(ethylcarbamoyl)amino]-4-[(4-fluoro-3-methoxyphenyl)amino]pyridin-3-yl}carbonyl)amino]phenyl}-2,2-dimethylpropanoic acid] were, in that order, not above 1 µg/mL and 4 µg/mL (≈ 7.64 µM).
`CCNC(=O)Nc1cc(Nc2ccc(OC)c(F)c2)c(C(=O)Nc2ccc(CC(C)(C)C(=O)O)cc2)cn1` [Compound 190, 3-{4-[({6-[(ethylcarbamoyl)amino]-4-[(3-fluoro-4-methoxyphenyl)amino]pyridin-3-yl}carbonyl)amino]phenyl}-2,2-dimethylpropanoic acid]: the results for the MIC (in the experiment with S. aureus (ATCC 29213); in experiment [1]) were not above 1 µg/mL and 2 µg/mL (≈ 3.82 µM), respectively.
The like results for `CCNC(=O)Nc1cc(Nc2ccc(Cl)cc2)c(C(=O)Nc2ccc([C@@H]3C[C@H]3C(=O)O)cc2)cn1` [Compound 192, (1R,2R)-2-{4-[({4-[(4-chlorophenyl)amino]-6-[(ethylcarbamoyl)amino]pyridin-3-yl}carbonyl)amino]phenyl}cyclopropanecarboxylic acid] were, in that order, not above 1 µg/mL and 2 µg/mL (≈ 4.05 µM).
